Reference: patent US11725036B2, “Modified lipidated relaxin B chain peptides and their therapeutic use” (Sanofi, priority 2018, dated 2023)
Starred links: 1 amine or outer side, 2 acyl side, 3 side chain; linkers in the order of their positions; H or OH if unused. Non-standard residues stand in square brackets, D forms with d. Residues, ends and D or L forms follow the SMILES beside them. Groups on a side chain read outwards from the residue. *: point of attachment. X13 = CCCCCCCCCCCCCCCC(=O)N[C@@H](CCC(=O)N[C@@H](CCC(=O)N[C@@H](CCC(=O)N[C@@H](CCC(=O)NCCCOCCOCCOCCCNC(=O)CCC(=O)NCCCOCCOCCOCCCNC(=O)CCC(=O)NCCCOCCOCCOCCCN*)C(=O)O)C(=O)O)C(=O)O)C(=O)O; X3 = CCCCCCCCCCCCCCCCCC(=O)N[C@@H](CCC(=O)N[C@@H](CCC(=O)N[C@@H](CCC(=O)NCCCOCCOCCOCCCNC(=O)CCC(=O)NCCCOCCOCCOCCCNC(=O)CCC(=O)NCCCOCCOCCOCCCN*)C(=O)O)C(=O)O)C(=O)O; X14 = CCCCCCCCCCCCCCCCCC(=O)N[C@@H](CCC(=O)N[C@@H](CCC(=O)N[C@@H](CCC(=O)N[C@@H](CCC(=O)NCCCOCCOCCOCCCNC(=O)CCC(=O)NCCCOCCOCCOCCCN*)C(=O)O)C(=O)O)C(=O)O)C(=O)O; Cit = NC(=O)NCCC[C@H](N)C(=O)O; Suc = O=C(CCC(=O)[*:2])[*:1]; αMeK = C[C@](N)(CCCCN)C(=O)O; Aib = CC(C)(N)C(=O)O

Biological target: T1, RXFP1 (Homo sapiens, UniProt Q9HBX9)
T1 construct: OVCAR5 cells expressing endogenous RXFP1; endogenous in cells; host or cells: OVCAR5
T1 sequence (Q9HBX9 1-757): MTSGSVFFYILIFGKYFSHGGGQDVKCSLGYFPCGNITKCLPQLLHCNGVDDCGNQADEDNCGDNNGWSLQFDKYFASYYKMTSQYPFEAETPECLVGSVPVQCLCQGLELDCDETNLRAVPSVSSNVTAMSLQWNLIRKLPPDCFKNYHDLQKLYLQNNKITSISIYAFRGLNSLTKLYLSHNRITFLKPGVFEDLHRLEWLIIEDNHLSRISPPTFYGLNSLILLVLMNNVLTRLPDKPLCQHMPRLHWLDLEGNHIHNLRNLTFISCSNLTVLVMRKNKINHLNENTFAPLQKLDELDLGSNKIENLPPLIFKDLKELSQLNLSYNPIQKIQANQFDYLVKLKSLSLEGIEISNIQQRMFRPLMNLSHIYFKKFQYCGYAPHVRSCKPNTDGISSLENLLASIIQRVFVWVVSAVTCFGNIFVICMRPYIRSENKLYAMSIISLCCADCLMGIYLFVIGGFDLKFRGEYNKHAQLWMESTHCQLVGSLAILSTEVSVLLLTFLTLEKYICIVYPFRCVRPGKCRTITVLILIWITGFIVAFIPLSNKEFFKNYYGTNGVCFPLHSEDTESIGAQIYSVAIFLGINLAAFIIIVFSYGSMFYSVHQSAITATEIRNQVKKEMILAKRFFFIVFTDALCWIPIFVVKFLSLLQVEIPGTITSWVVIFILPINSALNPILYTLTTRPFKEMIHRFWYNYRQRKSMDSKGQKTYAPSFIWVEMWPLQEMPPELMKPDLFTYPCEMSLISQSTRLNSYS
Test: OVCAR5 cAMP assay (HTRF)
Type: cell-based
Settings: for EC50: OVCAR 5 cells expressing endogenous RXFP1, cAMP readout; for Emax: OVCAR 5 cells, maximal cAMP relative to H2-relaxin
Method in brief: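 Endogenous RXFP1 in OVCAR5 cells, pretreated 40 min at 37° C with 1 mM IBMX, then exposed to increasing peptide concentrations in serum-free medium for 30 min at 37° C. cAMP read by HTRF; EC50 by variable-slope sigmoidal fit, Emax as % of H2-relaxin maximal cAMP in same run.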

| SMILES | EC50 [nM] | Emax [%] |
| --- | --- | --- |
| CCCCCCCCCCCCCCCC(=O)N[C@@H](CCC(=O)N[C@@H](CCC(=O)N[C@@H](CCC(=O)N[C@@H](CCC(=O)NCCCOCCOCCOCCCNC(=O)CCC(=O)NCCCOCCOCCOCCCNC(=O)CCC(=O)NCCCOCCOCCOCCCNC(=O)CCC(=O)NCCCC[C@H](NC(=O)CNC(=O)[C@H](CCC(=O)O)NC(=O)C(C)(C)NC(=O)C(C)(C)NC(=O)[C@@H](NC(=O)[C@H](CCCCNC(C)=O)NC(=O)[C@H](C)NC(=O)[C@H](CCCNC(=N)N)NC(=O)[C@@H](NC(=O)[C@H](CCCCN)NC(=O)[C@H](CCC(=O)O)NC(=O)[C@H](CCCNC(=N)N)NC(=O)CNC(=O)[C@H](CCC(=O)O)NC(=O)[C@H](CC(C)C)NC(C)=O)C(C)C)[C@@H](C)CC)C(=O)N[C@@H](CO)C(=O)N[C@H](C(=O)N[C@@H](Cc1c[nH]c2ccccc12)C(=O)N[C@@H](CO)C(=O)NC(C)(C)C(=O)N[C@@H](CCCNC(=N)N)C(=O)N[C@@H](CCCCN)C(=O)N[C@@H](CCCCNC(C)=O)C(N)=O)[C@@H](C)O)C(=O)O)C(=O)O)C(=O)O)C(=O)O [compound 62] (Ac-LEGREKVRAK(Ac)I[Aib][Aib]EGK([Suc-X13])STWS[Aib]RKK(Ac)-NH2) | 0.6 | 98 |
| CCCCCCCCCCCCCCCCCC(=O)N[C@@H](CCC(=O)N[C@@H](CCC(=O)N[C@@H](CCC(=O)NCCCOCCOCCOCCCNC(=O)CCC(=O)NCCCOCCOCCOCCCNC(=O)CCC(=O)NCCCOCCOCCOCCCNC(=O)CCC(=O)NCCCC[C@H](NC(=O)CNC(=O)[C@H](CCC(=O)O)NC(=O)C(C)(C)NC(=O)C(C)(C)NC(=O)[C@@H](NC(=O)[C@H](CCCNC(N)=O)NC(=O)[C@H](C)NC(=O)[C@H](CCCNC(=N)N)NC(=O)[C@@H](NC(=O)[C@H](CCCCN)NC(=O)[C@H](CCC(=O)O)NC(=O)[C@H](CCCNC(=N)N)NC(=O)CNC(=O)[C@H](CCC(=O)O)NC(=O)[C@H](CC(C)C)NC(C)=O)C(C)C)[C@@H](C)CC)C(=O)N[C@@H](CO)C(=O)N[C@H](C(=O)N[C@@H](Cc1ccccc1)C(=O)N[C@@H](CO)C(=O)N[C@@](C)(CCCCN)C(=O)N[C@@H](CCCNC(=N)N)C(=O)N[C@@H](C)C(=O)N[C@@H](CCCCNC(C)=O)C(N)=O)[C@@H](C)O)C(=O)O)C(=O)O)C(=O)O [compound 56] (Ac-LEGREKVRA[Cit]I[Aib][Aib]EGK([Suc-X3])STFS[αMeK]RAK(Ac)-NH2) | 0.15 | 91 |
| CCCCCCCCCCCCCCCCCC(=O)N[C@@H](CCC(=O)N[C@@H](CCC(=O)N[C@@H](CCC(=O)N[C@@H](CCC(=O)NCCCOCCOCCOCCCNC(=O)CCC(=O)NCCCOCCOCCOCCCNC(=O)CCC(=O)NCCCC[C@H](NC(=O)CNC(=O)[C@H](CCC(=O)O)NC(=O)C(C)(C)NC(=O)C(C)(C)NC(=O)[C@@H](NC(=O)[C@H](CCCCNC(C)=O)NC(=O)[C@H](C)NC(=O)[C@H](CCCNC(=N)N)NC(=O)[C@@H](NC(=O)[C@H](CCCCN)NC(=O)[C@H](CCC(=O)O)NC(=O)[C@H](CCCNC(=N)N)NC(=O)CNC(=O)[C@H](CCC(=O)O)NC(=O)[C@H](CC(C)C)NC(C)=O)C(C)C)[C@@H](C)CC)C(=O)N[C@@H](CO)C(=O)N[C@H](C(=O)N[C@@H](Cc1c[nH]c2ccccc12)C(=O)N[C@@H](CO)C(=O)NC(C)(C)C(=O)N[C@@H](CCCNC(=N)N)C(=O)N[C@@H](CCCCN)C(=O)N[C@@H](CCCCNC(C)=O)C(N)=O)[C@@H](C)O)C(=O)O)C(=O)O)C(=O)O)C(=O)O [compound 54] (Ac-LEGREKVRAK(Ac)I[Aib][Aib]EGK([Suc-X14])STWS[Aib]RKK(Ac)-NH2) | 0.16 | 96 |
